From patent publication US9115122B2, “Non-ATP dependent inhibitors of extracellular signal-regulated kinase (ERK)” (UNIVERSITY OF MARYLAND, BALTIMORE, priority 2012, dated 2015)

Key:
Experiment in all cases: Cell proliferation WST-1 assay, single dose (Example 4)
Type in all cases: cell-based
Settings in all cases: 100 μM, 48 hours
SK-MEL-28 melanoma cells = test system: SK-MEL-28 melanoma cells
Summary of the method: (§1)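 About 5000 cells per well recovered for 16–20 h and were then treated with a single dose of compound for 48 h. Proliferation was read by WST-1 absorbance at 450 nm minus 650 nm background and normalized to DMSO-only controls.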

[1] = test system: Jurkat T-cell leukemia cells
Summary of the method: as §1

A375 melanoma cells = test system: A375 melanoma cells
Summary of the method: as §1

[2] = test system: HeLa cervical carcinoma cells
Summary of the method: as §1

HL-60 leukemic cells = test system: HL-60 leukemic cells
Summary of the method: as §1

RPMI-7951 melanoma cells = test system: RPMI-7951 melanoma cells
Summary of the method: as §1

Compound	Cell Viability (% of Vehicle) SK-MEL-28 (SK-MEL-28 melanoma cells)	Cell Viability (% of Vehicle) Jurkat [1]	Cell Viability (% of Vehicle) A375 (A375 melanoma cells)	Cell Viability (% of Vehicle) HeLa [2]	Cell Viability (% of Vehicle) HL-60 (HL-60 leukemic cells)	Cell Viability (% of Vehicle) RPMI-7951 (RPMI-7951 melanoma cells)
CCOc1cccc(/C=C2\SC(=O)N(CCN)C2=O)c1 [Compound 30b, (Z)-3-(2-aminoethyl)-5-(3-ethoxybenzylidene)thiazolidine-2,4-dione]	36 ± 6 % of Vehicle	54 ± 5 % of Vehicle	19 ± 3 % of Vehicle	40 ± 1 % of Vehicle	4.8 ± 2 % of Vehicle	30 ± 2 % of Vehicle
CC(C)COc1ccccc1/C=C1\SC(=O)N(CCN)C1=O [Compound 30j, (Z)-3-(2-aminoethyl)-5-(2-isobutoxybenzylidene)thiazolidine-2,4-dione]	1.0 ± 0.1 % of Vehicle	1.8 ± 0.1 % of Vehicle	0.8 ± 0.02 % of Vehicle	0.8 ± 0.1 % of Vehicle	9.5 ± 3.4 % of Vehicle	1.0 ± 0.04 % of Vehicle
NCCN1C(=O)S/C(=C\c2ccc(O)cc2)C1=O [Compound 30f, (Z)-3-(2-aminoethyl)-5-(4-hydroxybenzylidene)thiazolidine-2,4-dione]	38 ± 3 % of Vehicle	96 ± 3 % of Vehicle	8.8 ± 2 % of Vehicle	63 ± 10 % of Vehicle	17 ± 12 % of Vehicle	24 ± 5 % of Vehicle
CCOc1ccc(/C=C2\SC(=S)N(CCN)C2=O)cc1 [Compound 9, (Z)-3-(2-aminoethyl)-5-(4-ethoxybenzylidene)-2-thioxothiazolidin-4-one]	45 ± 7 % of Vehicle	52 ± 4 % of Vehicle	21 ± 10 % of Vehicle	26 ± 6 % of Vehicle	7.9 ± 3 % of Vehicle	3.3 ± 2 % of Vehicle
CCOc1ccc(/C=C2\SC(=O)N(C(C)CN)C2=O)cc1 (stereo not drawn) [Compound 22c, (Z)-3-(1-aminopropan-2-yl)-5-(4-ethoxybenzylidene)thiazolidine-2,4-dione]	28 ± 4 % of Vehicle	54 ± 10 % of Vehicle	13 ± 2 % of Vehicle	45 ± 7 % of Vehicle	8.1 ± 3 % of Vehicle	22 ± 3 % of Vehicle
CCOc1ccc(/C=C2\SC(=O)N(CCCl)C2=O)cc1 [Compound 28f, (Z)-3-(2-chloroethyl)-5-(4-ethoxybenzylidene)thiazolidine-2,4-dione]	97 ± 3 % of Vehicle	99 ± 5 % of Vehicle	113 ± 9 % of Vehicle	87 ± 4 % of Vehicle	99 ± 14 % of Vehicle	128 ± 3 % of Vehicle
CCOc1ccc(/C=C2\SC(=O)N(CCNC(=O)OC(C)(C)C)C2=O)cc1 [Compound 25c, (Z)-tert-butyl (2-(5-(4-ethoxybenzylidene)-2,4-dioxothiazolidin-3-yl)ethyl)carbamate]	73 ± 1 % of Vehicle	92 ± 7 % of Vehicle	84 ± 2 % of Vehicle	81 ± 1 % of Vehicle	31 ± 5 % of Vehicle	62 ± 7 % of Vehicle
NCCN1C(=O)S/C(=C\c2ccccc2OCc2ccccc2)C1=O [Compound 30k, (Z)-3-(2-aminoethyl)-5-(2-(benzyloxy)benzylidene)thiazolidine-2,4-dione]	0.6 ± 0.04 % of Vehicle	1.5 ± 0.1 % of Vehicle	0.6 ± 0.03 % of Vehicle	0.6 ± 0.1 % of Vehicle	8.3 ± 3.4 % of Vehicle	0.9 ± 0.1 % of Vehicle
